Source: ChEMBL document CHEMBL5465560, “Selectivity Literature for EUbOPEN Chemogenomic Library” (2024)

What was measured:
[1] = molecular target: Tyrosine-protein kinase Lck (Homo sapiens, UniProt P06239); experiment: Selectivity interaction (KinomeScan (DiscoverX)) EUB0000607a LCK; settings: at 10 µM
[2] = molecular target: T1, Tyrosine-protein kinase ZAP-70 (Homo sapiens) (UniProt P43403); experiment: Selectivity interaction (KinomeScan (DiscoverX)) EUB0001049a ZAP70; settings: at 1 µM
T1 sequence (whole entry): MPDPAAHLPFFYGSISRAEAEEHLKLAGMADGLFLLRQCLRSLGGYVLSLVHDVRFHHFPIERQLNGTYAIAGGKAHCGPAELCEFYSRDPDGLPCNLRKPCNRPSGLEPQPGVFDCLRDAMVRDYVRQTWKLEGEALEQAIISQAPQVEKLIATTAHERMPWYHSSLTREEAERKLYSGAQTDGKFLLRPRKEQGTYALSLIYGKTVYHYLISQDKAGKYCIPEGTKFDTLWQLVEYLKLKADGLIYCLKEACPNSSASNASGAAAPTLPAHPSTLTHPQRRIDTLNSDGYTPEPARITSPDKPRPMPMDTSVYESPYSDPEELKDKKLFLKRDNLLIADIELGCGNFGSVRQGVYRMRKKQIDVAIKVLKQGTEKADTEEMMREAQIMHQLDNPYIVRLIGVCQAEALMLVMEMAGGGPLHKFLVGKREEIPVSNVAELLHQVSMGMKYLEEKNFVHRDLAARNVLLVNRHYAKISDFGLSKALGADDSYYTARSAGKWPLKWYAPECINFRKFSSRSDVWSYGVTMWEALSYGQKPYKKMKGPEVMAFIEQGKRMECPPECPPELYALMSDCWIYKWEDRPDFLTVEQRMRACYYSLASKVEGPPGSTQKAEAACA

[3] = molecular target: T2, Dual specificity mitogen-activated protein kinase kinase 7 (Homo sapiens) (UniProt O14733); experiment: Selectivity interaction (Kinase screening (Nanosyn)) EUB0000604a MAP2K7
T2 sequence (whole entry): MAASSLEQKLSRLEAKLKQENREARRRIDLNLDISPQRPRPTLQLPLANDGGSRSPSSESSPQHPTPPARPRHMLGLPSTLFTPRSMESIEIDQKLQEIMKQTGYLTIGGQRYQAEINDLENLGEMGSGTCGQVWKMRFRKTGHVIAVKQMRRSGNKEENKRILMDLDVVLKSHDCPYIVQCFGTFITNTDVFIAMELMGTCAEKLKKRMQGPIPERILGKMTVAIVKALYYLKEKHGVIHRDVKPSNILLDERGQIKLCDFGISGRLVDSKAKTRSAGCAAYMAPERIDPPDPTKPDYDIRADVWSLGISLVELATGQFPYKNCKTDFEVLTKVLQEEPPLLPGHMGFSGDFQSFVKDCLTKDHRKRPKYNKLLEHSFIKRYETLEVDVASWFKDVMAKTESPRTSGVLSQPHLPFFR

MAO-B (MAOB) = MAO-B (MAOB) (Homo sapiens, UniProt P27338); experiment: Selectivity interaction (Panel of kinases, GPCRs, ion channels and transporters (enzymatic assay)) EUB0000223bCl MAOB
[4] = molecular target: Serine/threonine-protein kinase N2 (Homo sapiens, UniProt Q16513); experiment: Selectivity interaction (KinomeScan (DiscoverX)) EUB0000655a PKN2; settings: at 10 µM
[5] = molecular target: T3, Dual specificity protein kinase TTK (Homo sapiens) (UniProt P33981); experiment: Selectivity interaction (KinomeScan (DiscoverX)) EUB0000229b TTK; settings: at 10 µM
T3 sequence (whole entry): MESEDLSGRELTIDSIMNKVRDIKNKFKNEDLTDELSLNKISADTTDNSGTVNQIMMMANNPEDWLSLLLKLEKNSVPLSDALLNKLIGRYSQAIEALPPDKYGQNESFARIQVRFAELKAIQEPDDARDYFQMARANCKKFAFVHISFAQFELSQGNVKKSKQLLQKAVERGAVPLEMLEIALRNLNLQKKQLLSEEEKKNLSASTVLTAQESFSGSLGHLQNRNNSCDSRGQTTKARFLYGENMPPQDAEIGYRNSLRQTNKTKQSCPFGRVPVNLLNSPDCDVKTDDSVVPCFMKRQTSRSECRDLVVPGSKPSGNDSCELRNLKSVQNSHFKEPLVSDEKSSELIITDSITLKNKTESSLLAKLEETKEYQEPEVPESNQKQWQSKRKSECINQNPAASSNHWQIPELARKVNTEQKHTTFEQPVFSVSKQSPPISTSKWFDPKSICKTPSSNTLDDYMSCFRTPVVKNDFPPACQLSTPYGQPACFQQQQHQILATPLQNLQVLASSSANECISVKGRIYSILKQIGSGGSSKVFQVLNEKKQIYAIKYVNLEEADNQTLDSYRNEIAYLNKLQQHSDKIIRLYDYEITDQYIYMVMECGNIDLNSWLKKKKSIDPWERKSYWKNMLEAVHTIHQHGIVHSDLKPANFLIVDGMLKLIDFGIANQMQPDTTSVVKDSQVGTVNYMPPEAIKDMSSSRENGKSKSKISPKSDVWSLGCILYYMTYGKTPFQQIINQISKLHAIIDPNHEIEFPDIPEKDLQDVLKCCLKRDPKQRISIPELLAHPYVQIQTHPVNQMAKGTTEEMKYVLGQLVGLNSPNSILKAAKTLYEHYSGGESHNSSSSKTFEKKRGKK

[6] = molecular target: T4, Testis-specific serine/threonine-protein kinase 1 (Homo sapiens) (UniProt Q9BXA7); settings: at 10 µM
T4 sequence (whole entry): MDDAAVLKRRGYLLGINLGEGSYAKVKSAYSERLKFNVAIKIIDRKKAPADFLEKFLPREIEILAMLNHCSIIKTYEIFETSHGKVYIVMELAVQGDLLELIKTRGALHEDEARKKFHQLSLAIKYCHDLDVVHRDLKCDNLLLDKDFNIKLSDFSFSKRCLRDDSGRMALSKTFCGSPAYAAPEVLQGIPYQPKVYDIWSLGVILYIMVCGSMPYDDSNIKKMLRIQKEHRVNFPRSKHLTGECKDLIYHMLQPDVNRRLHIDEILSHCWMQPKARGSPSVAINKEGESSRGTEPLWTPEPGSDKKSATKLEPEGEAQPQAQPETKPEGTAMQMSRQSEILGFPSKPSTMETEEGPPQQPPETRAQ

[7] = molecular target: Rho-associated protein kinase 2 (Homo sapiens, UniProt O75116); experiment: Selectivity interaction (KinomeScan (DiscoverX)) EUB0001619a ROCK2; settings: at 1 µM
[8] = molecular target: Mitogen-activated protein kinase kinase kinase 11 (Homo sapiens) (UniProt Q16584); experiment: Selectivity interaction (KinomeScan (DiscoverX)) EUB0001619a MAP3K11; settings: at 1 µM
Mitogen-activated protein kinase kinase kinase 11 (Homo sapiens), sequence (Q16584 whole entry, looked up): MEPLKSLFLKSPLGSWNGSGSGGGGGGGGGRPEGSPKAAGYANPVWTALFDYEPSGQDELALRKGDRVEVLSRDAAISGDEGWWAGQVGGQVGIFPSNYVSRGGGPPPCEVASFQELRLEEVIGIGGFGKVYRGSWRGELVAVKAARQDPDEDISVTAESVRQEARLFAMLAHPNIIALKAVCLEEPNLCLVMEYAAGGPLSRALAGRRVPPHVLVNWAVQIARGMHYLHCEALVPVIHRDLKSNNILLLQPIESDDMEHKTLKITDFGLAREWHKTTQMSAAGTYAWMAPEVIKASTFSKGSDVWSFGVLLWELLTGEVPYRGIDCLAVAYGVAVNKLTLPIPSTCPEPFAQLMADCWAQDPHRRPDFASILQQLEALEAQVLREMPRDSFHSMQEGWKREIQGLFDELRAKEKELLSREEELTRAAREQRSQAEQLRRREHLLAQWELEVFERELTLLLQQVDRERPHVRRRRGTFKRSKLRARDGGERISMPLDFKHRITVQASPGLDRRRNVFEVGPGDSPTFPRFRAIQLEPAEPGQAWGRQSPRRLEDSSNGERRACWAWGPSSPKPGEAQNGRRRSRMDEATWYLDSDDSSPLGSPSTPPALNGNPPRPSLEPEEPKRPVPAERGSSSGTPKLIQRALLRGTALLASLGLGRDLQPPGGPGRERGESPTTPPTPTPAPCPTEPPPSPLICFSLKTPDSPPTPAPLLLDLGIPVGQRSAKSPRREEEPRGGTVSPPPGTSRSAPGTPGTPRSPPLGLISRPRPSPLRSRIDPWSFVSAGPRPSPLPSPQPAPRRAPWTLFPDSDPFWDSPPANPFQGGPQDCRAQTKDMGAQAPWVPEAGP

MAO-B (MAOB), sequence (P27338 whole entry): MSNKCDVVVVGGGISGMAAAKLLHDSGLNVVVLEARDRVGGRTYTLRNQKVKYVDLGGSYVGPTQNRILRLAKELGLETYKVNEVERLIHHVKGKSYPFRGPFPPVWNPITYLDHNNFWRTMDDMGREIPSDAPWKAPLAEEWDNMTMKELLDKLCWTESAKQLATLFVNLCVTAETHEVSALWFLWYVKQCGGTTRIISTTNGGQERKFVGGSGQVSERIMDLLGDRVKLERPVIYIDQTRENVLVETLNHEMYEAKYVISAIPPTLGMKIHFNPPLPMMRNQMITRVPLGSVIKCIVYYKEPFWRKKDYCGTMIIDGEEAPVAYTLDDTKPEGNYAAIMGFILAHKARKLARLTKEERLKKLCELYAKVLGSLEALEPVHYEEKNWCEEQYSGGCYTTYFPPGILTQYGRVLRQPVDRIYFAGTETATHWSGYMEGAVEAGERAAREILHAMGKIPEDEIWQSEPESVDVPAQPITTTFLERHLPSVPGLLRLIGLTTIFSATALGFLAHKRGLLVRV
Serine/threonine-protein kinase N2, sequence (Q16513 whole entry, looked up): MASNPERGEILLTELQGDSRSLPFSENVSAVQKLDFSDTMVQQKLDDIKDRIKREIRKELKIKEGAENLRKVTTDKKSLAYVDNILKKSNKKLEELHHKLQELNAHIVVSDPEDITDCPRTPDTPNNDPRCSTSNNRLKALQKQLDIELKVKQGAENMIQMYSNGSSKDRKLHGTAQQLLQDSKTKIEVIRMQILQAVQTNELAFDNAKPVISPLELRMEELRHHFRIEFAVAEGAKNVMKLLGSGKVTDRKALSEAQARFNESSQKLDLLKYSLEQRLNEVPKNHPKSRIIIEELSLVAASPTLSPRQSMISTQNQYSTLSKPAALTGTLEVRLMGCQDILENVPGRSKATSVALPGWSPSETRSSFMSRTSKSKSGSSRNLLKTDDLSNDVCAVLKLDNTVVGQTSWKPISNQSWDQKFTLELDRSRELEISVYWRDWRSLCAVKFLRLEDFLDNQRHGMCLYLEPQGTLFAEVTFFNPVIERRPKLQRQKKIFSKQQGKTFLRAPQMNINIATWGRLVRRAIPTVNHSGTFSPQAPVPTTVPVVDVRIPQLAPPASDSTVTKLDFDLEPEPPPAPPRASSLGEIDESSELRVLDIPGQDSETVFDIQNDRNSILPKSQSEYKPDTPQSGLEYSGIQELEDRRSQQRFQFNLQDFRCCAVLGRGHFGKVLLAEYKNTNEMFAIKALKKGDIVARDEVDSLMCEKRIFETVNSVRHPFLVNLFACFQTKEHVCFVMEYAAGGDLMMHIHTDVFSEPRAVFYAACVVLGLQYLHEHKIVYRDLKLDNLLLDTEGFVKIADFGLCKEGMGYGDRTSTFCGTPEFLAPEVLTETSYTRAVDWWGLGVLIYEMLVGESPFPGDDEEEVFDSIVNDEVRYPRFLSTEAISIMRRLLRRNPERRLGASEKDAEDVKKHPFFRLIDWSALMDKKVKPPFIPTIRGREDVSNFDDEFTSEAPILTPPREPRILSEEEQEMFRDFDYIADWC
Rho-associated protein kinase 2, sequence (O75116 whole entry, looked up): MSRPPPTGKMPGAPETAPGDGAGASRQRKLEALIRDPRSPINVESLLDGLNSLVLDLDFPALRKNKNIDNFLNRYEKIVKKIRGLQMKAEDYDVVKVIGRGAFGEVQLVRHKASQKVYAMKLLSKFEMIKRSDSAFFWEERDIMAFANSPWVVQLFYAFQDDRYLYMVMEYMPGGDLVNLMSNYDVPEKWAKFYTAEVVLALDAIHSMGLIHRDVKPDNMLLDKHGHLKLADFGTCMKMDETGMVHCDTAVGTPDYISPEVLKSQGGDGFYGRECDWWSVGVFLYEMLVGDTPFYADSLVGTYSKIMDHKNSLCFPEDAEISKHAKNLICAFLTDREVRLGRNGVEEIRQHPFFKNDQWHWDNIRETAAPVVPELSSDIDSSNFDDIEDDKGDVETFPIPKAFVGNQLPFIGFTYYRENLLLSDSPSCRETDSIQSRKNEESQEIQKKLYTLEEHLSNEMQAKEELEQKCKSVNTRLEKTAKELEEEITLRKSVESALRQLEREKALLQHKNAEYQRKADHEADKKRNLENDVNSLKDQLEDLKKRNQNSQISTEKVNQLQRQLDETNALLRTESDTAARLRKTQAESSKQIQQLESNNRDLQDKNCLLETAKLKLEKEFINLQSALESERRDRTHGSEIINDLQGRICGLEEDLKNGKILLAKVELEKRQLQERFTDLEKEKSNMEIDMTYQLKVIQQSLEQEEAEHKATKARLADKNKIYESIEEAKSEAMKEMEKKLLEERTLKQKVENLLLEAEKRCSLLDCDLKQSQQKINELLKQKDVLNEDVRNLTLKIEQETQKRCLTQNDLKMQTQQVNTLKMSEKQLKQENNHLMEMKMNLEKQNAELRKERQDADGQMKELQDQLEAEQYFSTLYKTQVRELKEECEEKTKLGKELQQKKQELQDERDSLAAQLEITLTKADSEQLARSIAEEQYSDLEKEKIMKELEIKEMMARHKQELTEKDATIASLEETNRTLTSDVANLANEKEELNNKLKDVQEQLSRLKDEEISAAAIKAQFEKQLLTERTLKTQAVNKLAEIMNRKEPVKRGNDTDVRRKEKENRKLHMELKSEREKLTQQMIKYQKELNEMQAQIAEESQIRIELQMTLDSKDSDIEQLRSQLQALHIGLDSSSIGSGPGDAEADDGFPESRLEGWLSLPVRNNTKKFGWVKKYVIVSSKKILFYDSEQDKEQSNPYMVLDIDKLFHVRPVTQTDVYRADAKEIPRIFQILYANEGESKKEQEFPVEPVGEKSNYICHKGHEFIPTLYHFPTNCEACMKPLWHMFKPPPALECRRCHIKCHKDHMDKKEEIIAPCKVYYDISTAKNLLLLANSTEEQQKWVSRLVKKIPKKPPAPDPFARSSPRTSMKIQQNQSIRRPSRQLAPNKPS
Tyrosine-protein kinase Lck, sequence (P06239 2-509 limits assumed): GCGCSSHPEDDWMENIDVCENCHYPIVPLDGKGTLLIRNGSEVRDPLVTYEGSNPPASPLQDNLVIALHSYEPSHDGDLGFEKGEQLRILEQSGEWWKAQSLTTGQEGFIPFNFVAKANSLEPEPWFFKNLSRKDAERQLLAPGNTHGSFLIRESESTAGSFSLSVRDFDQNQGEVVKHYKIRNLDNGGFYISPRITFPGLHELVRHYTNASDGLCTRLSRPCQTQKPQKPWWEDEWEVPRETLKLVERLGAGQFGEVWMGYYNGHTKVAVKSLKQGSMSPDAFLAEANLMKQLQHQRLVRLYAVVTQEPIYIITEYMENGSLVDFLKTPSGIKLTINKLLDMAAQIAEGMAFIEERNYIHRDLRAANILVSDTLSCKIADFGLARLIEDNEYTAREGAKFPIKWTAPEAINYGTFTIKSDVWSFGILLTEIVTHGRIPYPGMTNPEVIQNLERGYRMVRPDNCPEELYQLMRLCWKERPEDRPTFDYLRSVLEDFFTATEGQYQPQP

CNC(=O)Nc1ccc(-c2nc(N3CC4CCC(C3)O4)c3cnn(C4CCC5(CC4)OCCO5)c3n2)cc1
% of control [1]: 100%

COc1cc(Nc2nc(C)cc(-c3cnn4nc(OC)ccc34)n2)cc(C(F)(F)F)c1
% of control [2]: 95%

Cc1cnc(Nc2ccc(F)cc2Cl)nc1-c1c[nH]c(C(=O)N[C@H](CO)c2cccc(Cl)c2)c1
% of inhibition [3]: 6%

COc1cc(C(=O)N2CC[C@@H](O)[C@@H](N)C2)cc2nc(-c3cc4ccccc4n3CC3CC3)n(C)c12
XC50 (MAO-B (MAOB)): 15.8 µM

CN(C)CCOc1ccc(-c2nc(-c3ccncc3)c(-c3ccc4c(c3)CC/C4=N\O)[nH]2)cc1
% of control [4]: 100%

COc1cc(N(C)c2ccnc3ccc(C(F)(F)F)cc23)cc(OC)c1OC
% binding [5]: 60%

Cc1cc([C@@H](C)Nc2ccccc2C(=O)O)c2nc(N3CCOCC3)cc(=O)n2c1 [AZD-6482]
% of control [6]: 100%

N#Cc1cccc(-c2c[nH]c3ncnc(N4CCOCC4)c23)c1
% of control [7]: 75% | % of control [8]: 100%
